Laboratory results as given in US20060069132A1, “Azolecarboxamide herbicides” (priority 2004, published 2006).

Key:
velvetleaf = experiment: Test B pre-/postemergence herbicide test; format: in vivo, Abutilon theophrasti; conditions: for Velvetleaf plant response rating: postemergence
Procedure, shortened: (§1)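 Response was scored visually 13 to 15 days after treatment against untreated greenhouse controls, 0 meaning no effect and 100 complete control. Formulations (solvent mixture plus surfactant) went onto soil after planting, onto foliage of 1- to 4-leaf plants, and onto 2-leaf plants in a flooded paddy set including rice and barnyardgrass.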

blackgrass = experiment: Test B postemergence herbicide test; format: in vivo, Alopecurus myosuroides; conditions: postemergence, visual rating, scale 0 (no effect) to 100 (complete control)
Procedure, shortened: (§2)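 Treated at 2-leaf (paddy) or 1–4-leaf, 2–18 cm (postemergence); greenhouse 13–15 d; visual score vs control, 0 none to 100 complete control; dash = not tested.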

rice = experiment: Test B flooded paddy test; format: in vivo, Oryza sativa; conditions: 1000 g ai/ha, scale 0 to 100 (0 no effect, 100 complete control)
Procedure, shortened: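 Postemergence plants were sprayed with formulated test chemicals at 2 to 18 cm height (1- to 4-leaf stage); paddy species were grown to the 2-leaf stage. After 13 to 15 days in a greenhouse, injury was rated visually against untreated controls on a 0–100 scale (0 = no effect, 100 = complete control).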

giant foxtail = experiment: Test B pre-/postemergence herbicide test; format: in vivo, Setaria faberi; conditions: for Foxtail, Giant plant response rating: postemergence
Procedure, shortened: as §1

lambsquarters = experiment: Test B pre-/postemergence herbicide test; format: in vivo, Chenopodium album; conditions: for Lambsquarters plant response rating: postemergence
Procedure, shortened: as §1

morningglory = experiment: Test B pre-/postemergence herbicide test; format: in vivo, Ipomoea coccinea; conditions: for Morningglory plant response rating: postemergence
Procedure, shortened: (§3)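 Herbicidal effect was judged by eye on a 0–100 scale after plants stood 13 to 15 days in the greenhouse following pre- or postemergence treatment with surfactant-containing formulations.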

Surinam grass = experiment: Test B pre-/postemergence herbicide test; format: in vivo, Urochloa decumbens; conditions: for Surinam Grass plant response rating: postemergence
Procedure, shortened: as §1

wild oat = experiment: Test B postemergence herbicide test; format: in vivo, Avena fatua; conditions: postemergence
Procedure, shortened: (§4)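 After treating 2-leaf paddy plants or 2–18 cm postemergence plants (1 to 4 leaves) with formulated chemical, researchers kept them in a greenhouse for 13–15 days. Effects were judged visually versus controls: 0 indicates none, 100 total control.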

large crabgrass = experiment: Test B pre-/postemergence herbicide test; format: in vivo, Digitaria sanguinalis; conditions: for Crabgrass, Large plant response rating: postemergence
Procedure, shortened: as §1

wheat = experiment: Test B postemergence herbicide test; format: in vivo, Triticum aestivum; parameters: key to Wheat plant response rating: 0 = no effect, 100 = complete control; conditions: postemergence
Procedure, shortened: as §4

pigweed = experiment: Test B pre-/postemergence herbicide test; format: in vivo, Amaranthus retroflexus; conditions: for Pigweed plant response rating: postemergence
Procedure, shortened: as §1

barnyardgrass [1] = experiment: Test B pre-/postemergence herbicide test; format: in vivo, Echinochloa crus-galli; conditions: for Barnyardgrass plant response rating: postemergence, scale 0 (no effect) to 100 (complete control)
Procedure, shortened: as §3

cocklebur = experiment: Test B pre-/postemergence herbicide test; format: in vivo, Xanthium strumarium; conditions: for Cocklebur plant response rating: postemergence, scale 0 (no effect) to 100 (complete control)
Procedure, shortened: as §3

[2] = test system: small flower umbrella sedge; experiment: Test B flooded paddy test; format: in vivo, Cyperus difformis; conditions: 1000 g ai/ha, scale 0 to 100 (0 no effect, 100 complete control)
Procedure, shortened: as §2

barnyardgrass [3] = experiment: Test B flooded paddy test; format: in vivo, Echinochloa crus-galli; conditions: 1000 g ai/ha, scale 0 to 100 (0 no effect, 100 complete control)
Procedure, shortened: as §2

[4] = 125 g ai/ha, 0 = no effect, 100 = complete control, preemergence
[5] = 500 g ai/ha, visual rating, 0 = no effect, 100 = complete control, preemergence
[6] = 125 g ai/ha, visual rating, scale 0 (no effect) to 100 (complete control)
[7] = 500 g ai/ha, scale 0 to 100, 0 is no effect, 100 is complete control

CCn1nc(C(C)(C)C)cc1C(=O)Nc1cc(C(=O)N(C)OC)ccc1F [Compound 244]
Velvetleaf plant response rating (0 to 100 scale) (velvetleaf; [4]): 70
Plant response rating, Velvetleaf (velvetleaf; [5]): 100
Velvetleaf plant response rating (velvetleaf; [6]): 40
Velvetleaf plant response rating (velvetleaf; [7]): 60
Blackgrass plant response rating (blackgrass; 125 g ai/ha): 10
Blackgrass plant response rating (blackgrass; 500 g ai/ha): 20
Rice plant response rating (rice): 90
Foxtail, Giant plant response rating (0 to 100 scale) (giant foxtail; [4]): 80
Plant response rating, Foxtail, Giant (giant foxtail; [5]): 90
Foxtail, Giant plant response rating (giant foxtail; [6]): 20
Foxtail, Giant plant response rating (giant foxtail; [7]): 30
Lambsquarters plant response rating (0 to 100 scale) (lambsquarters; [4]): 90
Plant response rating, Lambsquarters (lambsquarters; [5]): 100
Lambsquarters plant response rating (lambsquarters; [6]): 40
Lambsquarters plant response rating (lambsquarters; [7]): 70
Morningglory plant response rating (0 to 100 scale) (morningglory; [4]): 0
Plant response rating, Morningglory (morningglory; [5]): 20
Morningglory plant response rating (morningglory; [6]): 10
Morningglory plant response rating (morningglory; [7]): 20
Surinam Grass plant response rating (0 to 100 scale) (Surinam grass; [4]): 70
Plant response rating, Surinam Grass (Surinam grass; [5]): 90
Surinam Grass plant response rating (Surinam grass; [6]): 20
Surinam Grass plant response rating (Surinam grass; [7]): 30
Oat, Wild plant response rating (wild oat; [6]): 30
Oat, Wild plant response rating (wild oat; [7]): 50
Crabgrass, Large plant response rating (0 to 100 scale) (large crabgrass; [4]): 90
Plant response rating, Crabgrass, Large (large crabgrass; [5]): 100
Crabgrass, Large plant response rating (large crabgrass; [6]): 10
Crabgrass, Large plant response rating (large crabgrass; [7]): 30
Wheat plant response rating (wheat; [6]): 10
Wheat plant response rating (wheat; [7]): 20
Pigweed plant response rating (0 to 100 scale) (pigweed; [4]): 90
Plant response rating, Pigweed (pigweed; [5]): 100
Pigweed plant response rating (pigweed; [6]): 50
Pigweed plant response rating (pigweed; [7]): 70
Barnyardgrass plant response rating (0 to 100 scale) (barnyardgrass [1]; [4]): 80
Plant response rating, Barnyardgrass (barnyardgrass [1]; [5]): 90
Barnyardgrass plant response rating (barnyardgrass [1]; 125 g ai/ha, visual rating): 10
Barnyardgrass plant response rating (barnyardgrass [1]; 500 g ai/ha, visual rating): 50
Cocklebur plant response rating (0 to 100 scale) (cocklebur; [4]): 0
Plant response rating, Cocklebur (cocklebur; [5]): 20
Cocklebur plant response rating (cocklebur; 125 g ai/ha, visual rating): 30
Cocklebur plant response rating (cocklebur; 500 g ai/ha, visual rating): 80
Sedge, Umbrella plant response rating [2]: 80
Barnyardgrass plant response rating (barnyardgrass [3]): 90
